Literature values, collected in patent US12472143B2, “Blend compositions for oral administration as a rapidly dissolving powder and/or suspension” (MARENDA PHARMACEUTICALS LLC, priority 2017, dated 2025).

- solubility in water: sparingly soluble
Compound: CC(C)Cc1ccc(C(C)C(=O)O)cc1 (stereo not shown) [Ibuprofen]
